# From the supplement of paper PMC4862054
# Tests used:
# Conditions in all cases: incubation time: 72 h
# HCC1599 [1] = assay: normalised response (% of control), CellTiter-Glo; higher = more viable cells (100 = DMSO, 0 = benzethonium chloride kill control)
# How it was run: (§1)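 CellTox Green fluorescence (485/520 nm) and, after 10 min at room temperature, CellTiter-Glo luminescence were read from breast cancer cell lines incubated 72 h in 384-well plates. Cells were seeded as 20 µl suspension onto compound at 5 concentrations in 10-fold steps over a 10,000-fold range chosen per compound. Each plate was normalised to 0.1 % DMSO (100) and a positive kill control (0). Values are normalised signals, one per concentration.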
# CAL-120 [2] = assay: as above
# How it was run: as §1
# BT-549 [3] = assay: as above
# How it was run: as §1
# CAL-51 [4] = assay: as above
# How it was run: as §1
# MDA-MB-453 [5] = assay: as above
# How it was run: as §1
# MDA-MB-436 [6] = assay: as above
# How it was run: as §1
# BT-474 [7] = assay: as above
# How it was run: as §1
# MCF-10A [8] = assay: as above
# How it was run: as §1
# HDQ-P1 [9] = assay: as above
# How it was run: as §1
# DU-4475 [10] = assay: as above
# How it was run: as §1
# HCC1143 [11] = assay: as above
# How it was run: as §1
# SK-BR-3 = assay: as above
# How it was run: as §1
# MDA-MB-468 [12] = assay: as above
# How it was run: as §1
# Hs578T [13] = assay: as above
# How it was run: as §1
# HCC1937 [14] = assay: as above
# How it was run: as §1
# CAL-85-1 [15] = assay: as above
# How it was run: as §1
# MFM-223 [16] = assay: as above
# How it was run: as §1
# CAL-148 [17] = assay: as above
# How it was run: as §1
# MDA-MB-231 [18] = assay: as above
# How it was run: as §1
# HCC1599 [19] = assay: normalised response (% of control), CellTox Green; higher = less cell death (100 = DMSO, 0 = benzethonium chloride kill control)
# How it was run: as §1
# CAL-120 [20] = assay: as above
# How it was run: as §1
# BT-549 [21] = assay: as above
# How it was run: as §1
# CAL-51 [22] = assay: as above
# How it was run: as §1
# MDA-MB-453 [23] = assay: as above
# How it was run: as §1
# MDA-MB-436 [24] = assay: as above
# How it was run: as §1
# BT-474 [25] = assay: as above
# How it was run: as §1
# MCF-10A [26] = assay: as above
# How it was run: as §1
# HDQ-P1 [27] = assay: as above
# How it was run: as §1
# DU-4475 [28] = assay: as above
# How it was run: as §1
# HCC1143 [29] = assay: as above
# How it was run: as §1
# MDA-MB-468 [30] = assay: as above
# How it was run: as §1
# Hs578T [31] = assay: as above
# How it was run: as §1
# HCC1937 [32] = assay: as above
# How it was run: as §1
# CAL-85-1 [33] = assay: as above
# How it was run: as §1
# MFM-223 [34] = assay: as above
# How it was run: as §1
# CAL-148 [35] = assay: as above
# How it was run: as §1
# MDA-MB-231 [36] = assay: as above
# How it was run: as §1
smiles,measurement,setting,value
CC[C@]1(O)C[C@H]2CN(CCc3c([nH]c4ccccc34)[C@@](C(=O)OC)(c3cc4c(cc3OC)N(C=O)[C@H]3[C@@](O)(C(=O)OC)[C@H](OC(C)=O)[C@]5(CC)C=CCN6CC[C@]43[C@@H]65)C2)C1 [Vincristine] (1000 nM),normalised response,HCC1599 [1],12.2%
same,normalised response,CAL-120 [2],62.2%
same,normalised response,BT-549 [3],38%
same,normalised response,CAL-51 [4],23.8%
same,normalised response,MDA-MB-453 [5],63.8%
same,normalised response,MDA-MB-436 [6],28.8%
same,normalised response,BT-474 [7],53.5%
same,normalised response,MCF-10A [8],68.1%
same,normalised response,HDQ-P1 [9],71.5%
same,normalised response,DU-4475 [10],42.5%
same,normalised response,HCC1143 [11],55.3%
same,normalised response,SK-BR-3,18.5%
same,normalised response,MDA-MB-468 [12],38.2%
same,normalised response,Hs578T [13],25%
same,normalised response,HCC1937 [14],73.2%
same,normalised response,CAL-85-1 [15],50.1%
same,normalised response,MFM-223 [16],44.2%
same,normalised response,CAL-148 [17],59.3%
same,normalised response,MDA-MB-231 [18],48.4%
same,normalised response,HCC1599 [19],69.7%
same,normalised response,CAL-120 [20],85%
same,normalised response,BT-549 [21],73.4%
same,normalised response,CAL-51 [22],29.8%
same,normalised response,MDA-MB-453 [23],82.2%
same,normalised response,MDA-MB-436 [24],72.1%
same,normalised response,BT-474 [25],78.7%
same,normalised response,MCF-10A [26],56.6%
same,normalised response,HDQ-P1 [27],99.3%
same,normalised response,DU-4475 [28],95.8%
same,normalised response,HCC1143 [29],75.8%
same,normalised response,MDA-MB-468 [30],-25.1%
same,normalised response,Hs578T [31],33.5%
same,normalised response,HCC1937 [32],102%
same,normalised response,CAL-85-1 [33],54.1%
same,normalised response,MFM-223 [34],65.1%
same,normalised response,CAL-148 [35],86.8%
same,normalised response,MDA-MB-231 [36],45.3%
